Reference: paper PMC10542255, “A phase 1 trial of fuzuloparib in combination with apatinib for advanced ovarian and triple-negative breast cancer: efficacy, safety, pharmacokinetics and germline BRCA mutation analysis” (BMC Medicine, 2023)

Columns and labels:
[1] = human, in vivo
Description: The study used a standard 3 + 3 dose escalation design. The starting dose of fuzuloparib was 40 mg twice daily (bid) in combination with a fixed dose of apatinib at 250 mg once daily (qd); fuzuloparib could be dose escalated in 20 mg increments to up to 100 mg. An additional dose level of fuzuloparib 80 mg bid plus apatinib 375 mg qd was planned after assessment of the regimen of fuzuloparib 80 mg bid plus apatinib 250 mg qd. If dose escalation of fuzuloparib to 100 mg was completed, dose escalation for apatinib was initiated with two dose level planned: 375 mg qd and 500 mg qd (with fuzuloparib fixed at 100 mg bid). During dose escalation, the next-higher dose level was opened if less than one-third of patients in the previous dose level experienced a dose-limiting toxicity (DLT). Based on preliminary safety and efficacy data in the dose-escalation cohort, dose levels for PK-expansion were selected, with a total of 8–12 patients enrolled in each level. All patients received a single dose of oral fuzuloparib on day 1 and a single dose of oral apatinib on day 4 in cycle 0 (6 days in total), followed by continuous dosing of fuzuloparib and apatinib in 28-day cycles starting on cycle 1 day 1. Treatment continued until disease progression, intolerable toxicity, or patient withdrawal.
Pharmacokinetic sampling for single dose of fuzuloparib and apatinib was done on day 1 and day 4 (pre-dose and 0.5, 1, 2, 3, 4, 8, 12, 24, 48 h post-dose) of cycle 0, respectively; sampling for continuous dosing of the combination therapy was done on days 1 (pre-dose and 0.5, 1, 2, 3, 4, 8, 12, 24 h post-dose), 8 (pre-dose), 15 (pre-dose), 22 (pre-dose) of cycle 1, and day 1 (pre-dose and 0.5, 1, 2, 3, 4, 8, 12, 24 h post-dose) of cycle 2.
All enrolled patients who received at least one dose of study drug were included in the efficacy and safety analysis. […] Time-to-event endpoints were estimated using the Kaplan–Meier method, with the 95% CIs calculated using the Brookmeyer and Crowley method. PK parameters were calculated using the WinNonlin noncompartmental model. […]

[2] = system: gBRCAmut, platinum-sensitive OC; parameters: method as in PMID 33558426; conditions: fuzuloparib monotherapy, phase 2, gBRCAmut platinum-sensitive OC; cited from earlier work

Dose dependence of apatinib plasma exposure (AUC0-∞) [1]	Reduction of apatinib AUC0-24 h (cycle 2 day 1) vs AUC0-∞ after single apatinib monotherapy dose (cycle 0 day 4) [1]	Dose dependence of fuzuloparib plasma exposure (AUC0-12 h) [1]	SMILES	Median PFS [2]	ORR [2]
increased in a dose-dependent manner	47.7%-65.0%	–	N#CC1(c2ccc(NC(=O)c3cccnc3NCc3ccncc3)cc2)CCCC1 [apatinib]	–	–
–	–	increased in a dose-dependent manner	O=C(c1cc(Cc2n[nH]c(=O)c3ccccc23)ccc1F)N1CCn2nc(C(F)(F)F)nc2C1 [fuzuloparib]	12.0 months	69.9%
